Reference: the supplement of paper PMC11208160

Experiment: recombinant barcode read abundance after kanamycin selection (control-corrected) (log10(CPM+1)); higher = more efficient recombination; sequences stand for … in AGTGCAGAGAAAATCGGCCAGTTTTCTCTGCCTGCAGTCCGCATGCCGT…AGATTTATGCAGCGGACTGCCTTTCTCCCAAAGTGATAAACCGGACAGTATCATGGACCGGTTTTCCCGGTAATCCGTATTTGCAAGGTTGGTTTCACT; site = the 11-nt target
Summary of the method: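 The screen was pooled in E. coli and paired targets with IS621 bridge RNA target-binding loops. Recombination efficiency is taken from barcode counts per million at recombinant junctions, averaged and adjusted against the control. Values, in the form log10(CPM+1), come from duplicate plating on chloramphenicol/ampicillin LB agar or on chloramphenicol/ampicillin/kanamycin with 0.1 mM IPTG.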
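Also: IS621 recombinase and bridge RNA in Escherichia coli cells.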

| Sequence | recombinant barcode read abundance (log10) |
| --- | --- |
| CATTAGTCTTGGGTTCTAACCTGTTGCCT (site CATTAGTCTAG) | 1.33 |
| CATTAGTCTTGGGTTCTAACCTGTTGCCT (site TATTAATCTAG) | 0.0986 |
| CATTATCCTTGGGTTCTAACCTGTTGCCT (site CAATATCCTAG) | 0.0661 |
| CATTATCCTTGGGTTCTAACCTGTTGCCT (site CACTATCCTAG) | 0.161 |
| CATTATCCTTGGGTTCTAACCTGTTGCCT (site CAGTATCCTAG) | 0.0928 |
| CATTATCCTTGGGTTCTAACCTGTTGCCT (site CATTATCCTAG) | 0.136 |
| CATTCAACTTGGGTTCTAACCTGTTGCCG (site CATTCAACTAG) | 0.0546 |
| CATTCAACTTGGGTTCTAACCTGTTGCCG (site CATTCAACTCG) | 0.0716 |
| CCAAGATCTTGGGTTCTAACCTGTTGCCT (site CAAAGATCTAG) | 0.178 |
| CCAAGATCTTGGGTTCTAACCTGTTGCCT (site CCAAGATCTAG) | 0.556 |
| CCAAGATCTTGGGTTCTAACCTGTTGCCT (site CGAAGATCTAG) | 0.201 |
| CCAAGATCTTGGGTTCTAACCTGTTGCCT (site CTAAGATCTAG) | 0.46 |
| CCAAGCGCTTGGGTTCTAACCTGTTGCCT (site CCAAGCACTAG) | 0.589 |
| CCAAGCGCTTGGGTTCTAACCTGTTGCCT (site CCAAGCCCTAG) | 0.0283 |
| CCAAGCGCTTGGGTTCTAACCTGTTGCCT (site CCAAGCGCTAG) | 0.769 |
| CCAAGCGCTTGGGTTCTAACCTGTTGCCT (site CCAAGCTCTAG) | 0.209 |
| CCAAGGGCTTGGGTTCTAACCTGTTGCAG (site CCAAGGGCTCA) | 1.09 |
| CCAAGGGCTTGGGTTCTAACCTGTTGCAG (site CCAAGGGCTCC) | 0.546 |
| CCAAGGGCTTGGGTTCTAACCTGTTGCAG (site CCAAGGGCTCG) | 0.537 |
| CCAAGGGCTTGGGTTCTAACCTGTTGCAG (site CCAAGGGCTCT) | 2.13 |
| CCAAGGGCTTGGGTTCTAACCTGTTGCCG (site CCAAGGGCTCA) | 0.0491 |
| CCAAGGGCTTGGGTTCTAACCTGTTGCCG (site CCAAGGGCTCC) | 0.211 |

| Sequence | recombinant barcode read abundance (log10) |
| --- | --- |
| CCAAGGGCTTGGGTTCTAACCTGTTGCCG (site CCAAGGGCTCG) | 0.143 |
| CCAAGGGCTTGGGTTCTAACCTGTTGCCG (site CCAAGGGCTCT) | 0.33 |
| CCAAGTCCTTGGGTTCTAACCTGTTGCCA (site CCAAGTCCTTG) | 0.0554 |
| CCAAGTCCTTGGGTTCTAACCTGTTGCCA (site GTTCAGACTAA) | 0.031 |
| CCAATTGCTTGGGTTCTAACCTGTTGCCT (site CCAATTGCTAG) | 0.108 |
| CCAATTGCTTGGGTTCTAACCTGTTGCCT (site CTAATTGCTAG) | 0.0541 |
| CCACTCCCTTGGGTTCTAACCTGTTGCCT (site CCACTACCTAG) | 0.166 |
| CCACTCCCTTGGGTTCTAACCTGTTGCCT (site CCACTCCCTAG) | 0.0427 |
| CCACTCCCTTGGGTTCTAACCTGTTGCCT (site CCACTGCCTAG) | 0.0666 |
| CCACTCCCTTGGGTTCTAACCTGTTGCCT (site CCACTTCCTAG) | 0.279 |
| CCACTTCCTTGGGTTCTAACCTGTTGCCT (site CCACTACCTAG) | 0.233 |
| CCACTTCCTTGGGTTCTAACCTGTTGCCT (site CCACTCCCTAG) | 0.176 |
| CCACTTCCTTGGGTTCTAACCTGTTGCCT (site CCACTGCCTAG) | 0.0522 |
| CCACTTCCTTGGGTTCTAACCTGTTGCCT (site CCACTTCCTAG) | 0.0928 |
| CCAGAAGCTTGGGTTCTAACCTGTTGCGT (site CCAGAAGCTAC) | 0.279 |
| CCAGAAGCTTGGGTTCTAACCTGTTGCGT (site CCAGTAGCTCC) | 0.434 |
| CCAGCTGCTTGGGTTCTAACCTGTTGCCT (site CCAGCTGCTAG) | 1.11 |
| CCAGCTGCTTGGGTTCTAACCTGTTGCCT (site GTGCGCTCTGC) | 0.137 |
| CCAGGAGCTTGGGTTCTAACCTGTTGCAG (site CCAGGAGCTCT) | 0.312 |
| CCAGGAGCTTGGGTTCTAACCTGTTGCAG (site TCTGGAGCTCT) | 0.141 |
| CCAGGGACTTGGGTTCTAACCTGTTGCCT (site CCAAGGACTAG) | 0.683 |
| CCAGGGACTTGGGTTCTAACCTGTTGCCT (site CCACGGACTAG) | 0.294 |

| Sequence | recombinant barcode read abundance (log10) |
| --- | --- |
| CCAGGGACTTGGGTTCTAACCTGTTGCCT (site CCAGGGACTAG) | 1.31 |
| CCAGGGACTTGGGTTCTAACCTGTTGCCT (site CCATGGACTAG) | 0.0751 |
| CCAGTTACTTGGGTTCTAACCTGTTGCCT (site CCAGTAACTAG) | 0.104 |
| CCAGTTACTTGGGTTCTAACCTGTTGCCT (site CCAGTCACTAG) | 0.132 |
| CCAGTTACTTGGGTTCTAACCTGTTGCCT (site CCAGTGACTAG) | 0.195 |
| CCAGTTACTTGGGTTCTAACCTGTTGCCT (site CCAGTTACTAG) | 0.351 |
| CCATACCCTTGGGTTCTAACCTGTTGCTA (site ATCATAGCTGC) | 0.019 |
| CCATACCCTTGGGTTCTAACCTGTTGCTA (site CCATACCCTTA) | 0.884 |
| CCATAGTCTTGGGTTCTAACCTGTTGCTT (site CCATAGTCTAA) | 0.732 |
| CCATAGTCTTGGGTTCTAACCTGTTGCTT (site GCACAGTCTAA) | 0.052 |
| CCATCCTCTTGGGTTCTAACCTGTTGCTT (site CAATCCTCTAA) | 0.04 |
| CCATCCTCTTGGGTTCTAACCTGTTGCTT (site CCATCCTCTAA) | 0.0749 |
| CCATGGTCTTGGGTTCTAACCTGTTGCTT (site CCATACTCTAA) | 0.01 |
| CCATGGTCTTGGGTTCTAACCTGTTGCTT (site CCATGGTCTAA) | 1.78 |
| CCGAATCCTTGGGTTCTAACCTGTTGCCT (site CCGAATCCTAG) | 0.355 |
| CCGAATCCTTGGGTTCTAACCTGTTGCCT (site CCGACTCCTAG) | 0.361 |
| CCGAATCCTTGGGTTCTAACCTGTTGCCT (site CCGAGTCCTAG) | 0.122 |
| CCGAATCCTTGGGTTCTAACCTGTTGCCT (site CCGATTCCTAG) | 0.199 |
| CCGACTTCTTGGGTTCTAACCTGTTGCCT (site CAGACTTCTAG) | 0.219 |
| CCGACTTCTTGGGTTCTAACCTGTTGCCT (site CCGACTTCTAG) | 0.164 |
| CCGACTTCTTGGGTTCTAACCTGTTGCCT (site CGGACTTCTAG) | 0.244 |
| CCGACTTCTTGGGTTCTAACCTGTTGCCT (site CTGACTTCTAG) | 0.129 |
